In patent publication US20240058450A1, “BCL-XL Inhibitory Compounds Having Low Cell Permeability and Antibody Drug Conjugates Including the Same” (AbbVie Inc., priority 2014, published 2024) one finds EC50 and Ki data, which are given here for 13 molecules.

Read-outs that look alike come from different tables or passages of the source. Where only a bound is given, the exact number is not on record here.

For experiment [1], the system named is Molt-4 human acute lymphoblastic leukemia cells. The experiment is described as follows: Molt-4 cell viability assay (CellTiter-Glo, 48 hours, 10% HS). The conditions noted are these: Homo sapiens, MOLT-4, 48 h, non-permeabilized cells. The format is cell-based. As to the method:
The ability of Bcl-xL inhibitors that are able to traverse cell membranes to inhibit Bcl-xL can be determined in cell-based killing assays using a variety of cell lines and mouse tumor models. For example, their activity on cell viability can be assessed on a panel of cultured tumorigenic and non-tumorigenic cell lines, as well as primary mouse or human cell populations.
In one exemplary set of conditions, Molt-4 (ATCC, Manassas, VA) human acute lymphoblastic leukemia cells were plated 12,500 cells per well in 384-well tissue culture plates (Corning, Corning, NY) in a total volume of 25 μL tissue culture medium supplemented with 10% human serum (Sigma-Aldrich, St. Louis, MO) and treated with a 3-fold serial dilution of the compounds of interest from 10 μM to 0.0005 μM. Each concentration was tested in duplicate at least 3 separate times. The number of viable cells following 48 hours of compound treatment was determined using the CellTiter-Glo®, Luminescent Cell Viability Assay according to the manufacturer's recommendations (Promega Corp., Madison, WI). Compounds were tested in the presence of 10% HS.

Another experiment has as its target Bcl-xL (Homo sapiens, UniProt Q07817). The experiment can be described thus: Time Resolved-Fluorescence Resonance Energy Transfer (TR-FRET) binding assay, competition with probe F-Bak. On the procedure: Tb-anti-GST antibody was purchased from Invitrogen (Catalog No. PV4216).
For the assay, test compounds were serially diluted in DMSO starting at 50 μM (2× starting concentration; 10% DMSO) and 10 μL transferred into a 384-well plate. 10 μL of a protein/probe/antibody mix was then added to each well at final concentrations listed below:
The samples were then mixed on a shaker for 1 minute and incubated for an additional 2 hours at room temperature. For each assay plate, a probe/antibody and protein/antibody/probe mixture were included as a negative and a positive control, respectively. Fluorescence was measured on the Envision (Perkin Elmer) using a 340/35 nm excitation filter and 520/525 (F-Bak) and 495/510 nm (Tb-labeled anti-his antibody) emission filters. Dissociation constants (Ki) were determined using Wang's equation (Wang, 1995, FEBS Lett. 360:111-114). The TR-FRET assay can be performed in the presence of varying concentrations of human serum (HS) or fetal bovine serum (FBS). Compounds were tested both without HS and in the presence of 1% HS.

The mark [2] stands for this setting: in the presence of 1% HS, read-out: Bcl-xL Binding Ki (nM, 1% HS).
Where [3] appears, read: without HS, read-out: Bcl-xL Binding Ki.

Bcl-xL, sequence (Q07817 whole entry): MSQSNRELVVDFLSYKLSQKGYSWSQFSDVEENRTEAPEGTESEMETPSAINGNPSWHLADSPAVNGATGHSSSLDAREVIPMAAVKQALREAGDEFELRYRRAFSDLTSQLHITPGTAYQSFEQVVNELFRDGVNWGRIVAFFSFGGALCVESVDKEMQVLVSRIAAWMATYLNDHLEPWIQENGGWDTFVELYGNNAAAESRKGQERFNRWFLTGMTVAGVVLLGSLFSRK

As for `CNCCCc1cc2c(c(C(=O)Nc3nc4ccccc4s3)c1)CN(c1ccc(-c3cnn(CC45CC6(C)CC(C)(C4)CC(OCCNCCS(=O)(=O)O)(C6)C5)c3C)c(C(=O)O)n1)CC2` [Example 1.75, 6-[8-(1,3-benzothiazol-2-ylcarbamoyl)-6-[3-(methylamino)propyl]-3,4-dihydroisoquinolin-2 (1H)-yl]-3-{1-[(3,5-dimethyl-7-{2-[(2-sulfoethyl)amino]ethoxy}tricyclo[3.3.1.1^3,7]dec-1-yl)methyl]-5-methyl-1H-pyrazol-4-yl}pyridine-2-carboxylic acid], the EC50 in experiment [1] was determined as 409 nM. Moreover, the figures for the Ki on Bcl-xL (setting [2]) and on Bcl-xL (setting [3]) were 0.85 nM and 0.016 nM, respectively.
Taken in the same sequence, the figures for `Cc1c(-c2ccc(N3CCc4cccc(C(=O)Nc5nc6ccccc6s5)c4C3)nc2C(=O)O)cnn1CC12CC3(C)CC(C)(C1)CC(OCCN(C)C(=O)[C@@H](N)CC(=O)O)(C3)C2` [Example 1.17, 3-{1-[(3-{2-[L-alpha-aspartyl(methyl)amino]ethoxy}-5,7-dimethyltricyclo[3.3.1.1^3,7]dec-1-yl)methyl]-5-methyl-1H-pyrazol-4-yl}-6-[8-(1,3-benzothiazol-2-ylcarbamoyl)-3,4-dihydroisoquinolin-2 (1H)-yl]pyridine-2-carboxylic acid] were 576 nM, 0.3 nM and 0.022 nM.
The corresponding values for `Cc1c(-c2ccc(N3CCc4cccc(C(=O)Nc5nc6ccccc6s5)c4C3)nc2C(=O)O)cnn1CC12CC3(C)CC(C)(C1)CC(OCCNCCCc1cn([C@@H]4O[C@H](C(=O)O)[C@@H](O)[C@H](O)[C@H]4O)nn1)(C3)C2` [Example 1.73, 8-(1,3-benzothiazol-2-ylcarbamoyl)-2-{6-carboxy-5-[1-({3-[2-({3-[1-(beta-D-glucopyranuronosyl)-1H-1,2,3-triazol-4-yl]propyl}amino)ethoxy]-5,7-dimethyltricyclo[3.3.1.1^3,7]dec-1-yl}methyl)-S-methyl-1H-pyrazol-4-yl]pyridin-2-yl}-1,2,3,4-tetrahydroisoquinoline] are 3500 nM, 34 nM and 0.88 nM.
Taken in the same sequence, the figures for `Cc1c(-c2ccc(-c3cnc4cccc(C(=O)Nc5nc6ccccc6s5)c4c3)nc2C(=O)O)cnn1CC12CC3(C)CC(C)(C1)CC(OCCNCCC(=O)O)(C3)C2` [Example 1.71, 6-[5-(1,3-benzothiazol-2-ylcarbamoyl)quinolin-3-yl]-3-{1-[(3-{2-[(2-carboxyethyl)amino]ethoxy}-5,7-dimethyltricyclo[3.3.1.1^3,7]dec-1-yl)methyl]-5-methyl-1H-pyrazol-4-yl}pyridine-2-carboxylic acid] were 677 nM, 0.061 nM and less than 0.01 nM.
Consider `Cc1c(-c2ccc(N3CCc4cccc(C(=O)Nc5nc6ccccc6s5)c4C3)nc2C(=O)O)cnn1CC12CC3(C)CC(C)(C1)CC(OCCOCCNCCCP(=O)(O)O)(C3)C2` [Example 1.16, 6-[8-(1,3-benzothiazol-2-ylcarbamoyl)-3,4-dihydroisoquinolin-2 (1H)-yl]-3-(1-{[3,5-dimethyl-7-(2-{2-[(3-phosphonopropyl)amino]ethoxy}ethoxy)tricyclo[3.3.1.1^3,7]dec-1-yl]methyl}-5-methyl-1H-pyrazol-4-yl}pyridine-2-carboxylic acid], for which the EC50 in experiment [1] came out at 218 nM. The results for the Ki on Bcl-xL (setting [2]) and at Bcl-xL (setting [3]) were 0.17 nM and less than 0.001 nM, respectively.
The corresponding values for `Cc1c(-c2ccc(N3CCc4c(CC5O[C@H](CO)[C@@H](O)[C@H](O)[C@H]5O)ccc(C(=O)Nc5nc6ccccc6s5)c4C3)nc2C(=O)O)cnn1CC12CC3(C)CC(C)(C1)CC(OCCN)(C3)C2` (stereo partly drawn) [Example 1.55, (1ξ)-1-({2-[5-(1-{[3-(2-aminoethoxy)-5,7-dimethyltricyclo[3.3.1.1^3,7]dec-1-yl]methyl}-5-methyl-1H-pyrazol-4-yl)-6-carboxypyridin-2-yl]-8-(1,3-benzothiazol-2-ylcarbamoyl)-1,2,3,4-tetrahydroisoquinolin-5-yl}methyl)-1,5-anhydro-D-glucitol] are 73 nM, 0.039 nM and 0.039 nM.
The corresponding values for `Cc1c(-c2ccc(-c3cc4cccc(C(=O)Nc5nc6ccccc6s5)c4[nH]3)nc2C(=O)O)cnn1CC12CC3(C)CC(C)(C1)CC(OCCNCCS(=O)(=O)O)(C3)C2` [Example 1.74, 6-[7-(1,3-benzothiazol-2-ylcarbamoyl)-1H-indol-2-yl]-3-{1-[(3,5-dimethyl-7-{2-[(2-sulfoethyl)amino]ethoxy}tricyclo[3.3.1.1^3,7]dec-1-yl)methyl]-5-methyl-1H-pyrazol-4-yl}pyridine-2-carboxylic acid] are 5.7 nM, 0.016 nM and less than 0.01 nM.
Consider `Cc1c(-c2ccc(-c3ccc4c(c3)N(C(=O)Nc3nc5ncccc5s3)CCC4)nc2C(=O)O)cnn1CC12CC3(C)CC(C)(C1)CC(OCCNCCS(=O)(=O)O)(C3)C2` [Example 1.53, 3-{1-[(3,5-dimethyl-7-{2-[(2-sulfoethyl)amino]ethoxy}tricyclo[3.3.1.1^3,7]dec-1-yl)methyl]-5-methyl-1H-pyrazol-4-yl}-6-[1-([1,3]thiazolo[4,5-b]pyridin-2-ylcarbamoyl)-1,2,3,4-tetrahydroquinolin-7-yl]pyridine-2-carboxylic acid], for which the EC50 in experiment [1] came to 462 nM. The Ki is 0.088 nM at Bcl-xL (setting [2]) and less than 0.001 nM at Bcl-xL (setting [3]).
The corresponding values for `Cc1c(-c2ccc(-c3ccc4nccc(C(=O)Nc5nc6ccccc6s5)c4c3)nc2C(=O)O)cnn1CC12CC3(C)CC(C)(C1)CC(OCCNCCS(=O)(=O)O)(C3)C2` [Example 1.70, 6-[4-(1,3-benzothiazol-2-ylcarbamoyl)quinolin-6-yl]-3-{1-[(3,5-dimethyl-7-{2-[(2-sulfoethyl)amino]ethoxy}tricyclo[3.3.1.1^3,7]dec-1-yl)methyl]-5-methyl-1H-pyrazol-4-yl}pyridine-2-carboxylic acid] are 193 nM, 0.275 nM and less than 0.01 nM.
The corresponding values for `Cc1c(-c2ccc(N3CCc4cccc(C(=O)Nc5nc6ccccc6s5)c4C3)nc2C(=O)O)cnn1CC12CC3(C)CC(C)(C1)CC(OCCN(CCN)CCS(=O)(=O)O)(C3)C2` [Example 1.33, 3-{1-[(3-{2-[(2-aminoethyl)(2-sulfoethyl)amino]ethoxy}-5,7-dimethyltricyclo[3.3.1.1^3,7]dec-1-yl)methyl]-5-methyl-1H-pyrazol-4-yl}-6-[8-(1,3-benzothiazol-2-ylcarbamoyl)-3,4-dihydroisoquinolin-2 (1H)-yl]pyridine-2-carboxylic acid] are 319 nM, 0.12 nM and less than 0.001 nM.
The corresponding values for `Cc1c(-c2ccc(N3CCc4cccc(C(=O)Nc5nc6ccccc6s5)c4C3)nc2C(=O)O)cnn1CC12CC3(C)CC(C)(C1)CC(OCCN(CCNCCS(=O)(=O)O)CCS(=O)(=O)O)(C3)C2` [Example 1.48, 6-[8-(1,3-benzothiazol-2-ylcarbamoyl)-3,4-dihydroisoquinolin-2 (1H)-yl]-3-{1-[(3,5-dimethyl-7-{2-[(2-sulfoethyl){2-[(2-sulfoethyl)amino]ethyl}amino]ethoxy}tricyclo[3.3.1.1^3,7]dec-1-yl)methyl]-5-methyl-1H-pyrazol-4-yl}pyridine-2-carboxylic acid] are 692 nM, 0.497 nM and less than 0.001 nM.
As to `Cc1c(-c2ccc(-c3ccc4cncc(C(=O)Nc5nc6ccccc6s5)c4c3)nc2C(=O)O)cnn1CC12CC3(C)CC(C)(C1)CC(OCCNCCS(=O)(=O)O)(C3)C2` [Example 1.78, 6-[4-(1,3-benzothiazol-2-ylcarbamoyl)isoquinolin-6-yl]-3-{1-[(3,5-dimethyl-7-(2-[(2-sulfoethyl)amino]ethoxy}tricyclo[3.3.1.1^3,7]dec-1-yl)methyl]-5-methyl-1H-pyrazol-4-yl}pyridine-2-carboxylic acid], the midpoint of the response in experiment [1], the EC50, lay at 2.22 nM. The Ki on Bcl-xL (setting [2]) and at Bcl-xL (setting [3]) was less than 0.01 nM in each case.
`Cc1c(-c2ccc(N3CCc4cccc(C(=O)Nc5nc6ccccc6s5)c4C3)nc2C(=O)O)cnn1CC12CC3(C)CC(C)(C1)CC(OCCNCc1ccc(S(=O)(=O)N[C@@H]4[C@@H](O)[C@H](O)[C@@H](CO)O[C@H]4O)cc1)(C3)C2` [Example 1.8, 2-({[4-({[2-({3-[(4-{6-[8-(1,3-benzothiazol-2-ylcarbamoyl)-3,4-dihydroisoquinolin-2 (1H)-yl]-2-carboxypyridin-3-yl}-5-methyl-1H-pyrazol-1-yl)methyl]-5,7-dimethyltricyclo[3.3.1.1^3,7]dec-1-yl}oxy)ethyl]amino}methyl)phenyl]sulfonyl}amino)-2-deoxy-beta-D-glucopyranose] displayed an EC50 in experiment [1] of 108 nM. Moreover, the Ki on Bcl-xL (setting [2]) turned out to be 0.19 nM; at Bcl-xL (setting [3]), 0.0019 nM.
